Source: patent US6620821B2, “HMG-CoA reductase inhibitors and method” (Bristol-Myers Squibb Company, priority 2000, dated 2003)

CC(C)c1nc2c(c(-c3ccc(F)cc3)c1CC[C@@H](O)C[C@@H](O)CC(=O)[O-])CCCc1ccccc1-2.[Na+]
melting point: 253 to 254 °C
